Data set [1] deals with Pityrosporum orbiculare-Malassezia furfur. The data set is described as follows: Treatment of scaly skin disease (Tinea versicolor, Pityriasis versicolor) in patients. The data set is classed as in vivo. The settings on record: cotton swab 2 times a day, 7 days. On the procedure:
Treatment of a Fungal Disease of the Skin—Scaly Skin Disease (Tinea Versicolor, Pityriasis versicolor). The disease is caused by a fungus called Pityrosporum orbiculare-Malassezia furfur (mycelial form). The following was prepared for the study: A 0.1% oil (olive oil) solution of the presented preparation and a 0.002% aqueous solution of the prototype substance. As a reference olive oil was used. The study included three groups of patients. Each group included 2 patients with this pathology. Treatment duration was 7 days. The drug was applied with a cotton swab 2 times a day—in the morning and in the evening.

For a further data set, the system named is Aspergillus niger. Kind of data set: Aspergillus pneumonia in mice, lung colonization after inhalation treatment. The data set is classed as in vivo, white scrub mice. On the procedure:
The tests were conducted on white scrub mice (female, 6-8 weeks) received from “Rappolovo” breeding nursery (Leningrad reg.), which were kept under supervision for two weeks prior to the experiments on a standard diet in regulated vivarium conditions. Selection of the animals for the experiment group was conducted by the random selection method. For propagation of aspergillus pneumonia, the white scrub mice received a single intraperitoneal injection of a cyclophosphamide solution (150 mg/kg). After 3 days, the mice received a single intraperitoneal injection of a hydrocortisone solution (250 mg/kg). Twenty-four hours after administration of hydrocortisone the mice were intranasally infected with a suspension of Aspergillus niger (approximately 10^7 cells/ml) under ether narcosis. On day 5 after infection 5 animals from each group were taken to study lung colonization (euthanasia in the rodents was performed by overdose of ether). Lung tissues were used to prepare homogenates, in which the titer of Aspergillus fungi was determined. Observation over the remaining mice was carried out for 14 days after infection to record their mortality. The following groups of animals infected with Aspergillus niger were formed in the experiment. 1. Control groups: K1, K2, K3; the animals were exposed to an aerosol of isotonic sodium chloride solution. 2. Groups E1, E2, E3; the animals were administered a 0.1% aqueous solution of the presented preparation in the form of inhalations. 3. Groups P1, P2; the animals were administered an aqueous solution of the prototype fungicidal agent in the form of inhalations in concentrations of 0.002% and 0.001% respectively. The animals were placed into an aerosol chamber (12 liters) for 30 minutes, during which period 500 mL of air pass through their lungs. “OMRON U1” (Japan) ultrasonic nebulizer was used was used as an aerosol generator. To maintain a constant aerosol concentration in the chamber, a pneumatic vortex generator was used in the pulsed spraying mode ensuring a stable aerosol with particle size of 3 microns. The animals were placed in immobilization containers and exposed to the obtained aerosol for 30 minutes 1 time per day for 3 days starting from day 1 after the infection. Samples of homogenized lung tissue were used to prepare a number of successive dilutions followed by sowing on Saburo medium.

A short description of a further data set: Solubility in water. The data set is classed as physicochemical. The settings on record: for solubility in water: maximum concentration in water. An excerpt: (§1) However, this compound is very poorly soluble in aqueous media and in fats. The maximum value of solubility of the known drug in water is 0.002%, and for fats it is no more than 0.001% (octanol, which is a common model of lipids). […] Solutions with such concentration of the active substance are not sufficiently effective. At the same time the task of improvement of efficiency of use of a fungicidal agent in the form of solutions for use in human and veterinary medicine in the form of injections and inhalations and for treatment of a variety of materials and agricultural products is extremely urgent.

The nature of data set [2]: Solubility in fats / oil solutions. The data set is classed as physicochemical.
Excerpt: as §1

The test system of a further data set is Candida fungi. Kind of data set: Treatment of vulvovaginal candidiasis in patients. The data set is classed as in vivo. The settings on record: douchings morning and evening, 7 days. As to the method: Treatment of Vulvovaginal Candidiasis. In the experiment, the patients, who suffered vulvovaginal candidiasis caused by Candida fungi, were treated using the following aqueous solutions: 1) 0.1% solution of the presented drug (3 persons), 2) 0.002% solution of the prototype drug (3 people). The treatment in the form of dualfold (in the morning and in the evening) douchings was performed for 7 days. The treatment efficacy was assessed by the clinical presentation and the results mycological examination (inoculations on Saburo medium).

The subject of data set [3] is Aspergillus niger and Penicillium notatum. Kind of data set: Protection of construction wood against fungal attacks. The conditions noted are these: 5 days at 30° C.; for growth of test organisms on the boards: humid environment. On the procedure:
To test the preparation boards by the dimensions of 20×40×2 cm were used. The boards were divided into three groups. Group 1: the boards were impregnated with a 0.3% aqueous solution of the presented formulation. The impregnation was carried out by twofold application of the solution by means of a diffuser with an intermediate drying. Group 2: the boards were impregnated with a 0.02% aqueous solution of the prototype preparation. The impregnation was carried out by twofold application of the solution by means of a diffuser with an intermediate drying. Group 3 (control): the boards were impregnated with distilled water. The impregnation was carried out by twofold application of water by means of a diffuser with an intermediate drying. The boards dried after treatment were soaked in water for two hours, after which they were coated with Aspergillus niger and Penicillium notatum fungi cultures at opposite ends of one side. The boards were placed in thermostats for 5 days at the temperature of 30° C. in a humid environment. After incubation, the boards were visually inspected and inoculations were made from their surface onto a nutrient medium (Sabouraud).

A further data set concerns Leveillula taurica. The data set is described as follows: Treatment of powdery mildew on tuberous begonias. It counts as in vivo, Begonia tuberosa hybridum. The settings on record: spray of 0.1% aqueous solution once a day for 7 days. As to the method: The study was conducted on tuberous begonias (Begonia tuberosa hybridum), infected with powdery mildew. Powdery mildew affects many plants, including trees and shrubs. Powdery mildew affects chrysanthemums, begonias, roses; at that a white, sometimes darkening, plaque appears green parts of the plant. The disease is transmitted by airborne spores. The tested plants were infected with spores of a fungus (Leveillula taurica) when exposed up to appearance of a white plaque on the leaves. Three leaves on each plant were infected. After appearance of the plaque the plants in control group (three plants) were isolated from the three plants treated with a spray of a 0.1% aqueous solution of the presented preparation. The treatment was performed once a day for 7 days. After the treatment was complete, observation over the plants was continued for another three weeks.

Data set [4] relates to fungi of the Microsporum genus. Kind of data set: Treatment of ringworm in cats. It counts as in vivo. From the text: The preparation was used in treatment of ringworm in cats (two animals) caused by fungi of the Microsporum genus and characterized by appearance of small round bald patches on the face and ears of the animal. The preparation in the form of a 0.1% aqueous solution was applied onto the affected area three times a day for 6 days.

Where [5] appears, read: lung homogenate day 5, 0.001% aqueous solution, inhalation, group P2.
[6] abbreviates: lung homogenate day 5, 0.002% aqueous solution, inhalation, group P1.
Where [7] appears, read: boards impregnated with 0.02% aqueous solution.
[8] abbreviates: 0.1% aqueous solution on affected area three times a day for 6 days.
Where [9] appears, read: boards impregnated with 0.3% aqueous solution.

Where “and” joins values, the source holds several entries; their conditions need not be identical. Equal entries are not always repeated.

For “2.4-dioxo-5-(2-hydroxy-3.5-dichlorobenzylidene)amino-1.3-pyrimidine [Prototype, reference compound]”, the Complete cure result in data set [1] (0.002% aqueous solution) was “Absent”. Moreover, in the data set with Aspergillus niger (setting [5]), the “Number of colonies (in different dilutions) 10^−2” value was found to be 37 and the “Number of colonies (in different dilutions) 10^−4” value came out at 2. In the data set with Aspergillus niger (setting [6]), the “Number of colonies (in different dilutions) 10^−2” value is on record as 26 and the “Number of colonies (in different dilutions) 10^−4” value came out at 1. Moreover, the solubility in water in “Solubility in water” is on record as 0.002%. Moreover, the solubility in fats entry in data set [2] (octanol as common model of lipids) was “no more than 0.001%”. In addition, in the data set on Candida fungi (0.002% aqueous solution), the Complete cure result was “Not reached” and the “Mycological cure (reduction in the number of fungi inoculated on a solid medium)” value is 1.7-fold reduction in the number of. In data set [3] (setting [7]), the “growth from inoculations on nutrient medium (Sabouraud)” value is given as “later spread in the nutrient medium” and the “growth of test organisms on the boards” value is recorded as “a growth of the inoculated test bacteria can be detected”.
For the molecule `N#CSc1cc(C=Nc2c[nH]c(=O)nc2O)c(O)c(SC#N)c1` [presented preparation], the Complete cure result in data set [1] (0.1% oil (olive oil) solution) was “Reached”. In addition, in the data set on Leveillula taurica, the “growth of fungi after flushing off the leaf and inoculation on a nutrient medium” value is reported as “no growth of the fungi was observed”. For the same molecule, the “increase or spread of the fungus on the plant” value in the data set on Leveillula taurica (observation three more weeks) is on record as “no increase or spread of the fungus to other parts of the plant occur”. In addition, the “Number of colonies (in different dilutions) 10^−2” value in the data set on Aspergillus niger (lung homogenate day 5, Saburo medium, 0.1% aqueous solution, inhalation 30 min once daily for 3 days, groups E1-E3) is 2 and 4. The solubility in water in “Solubility in water” is recorded as 0.3-0.4%. Moreover, the “increase in solubility versus prototype” value in the data set “Solubility in water” (water and oil solutions) is on record as “more than a hundred-fold”. Further, the “solubility for oil solutions” value in data set [2] (oil solutions) is 0.25-0.3%. Besides, in the data set with Candida fungi (0.1% aqueous solution), the Complete cure entry is “Reached” and the “Mycological cure (reduction in the number of fungi inoculated on a solid medium)” value is given as “A tenfold reduction in the number”. In data set [4] (setting [8]), the inflammatory manifestations entry is “disappearance of inflammatory manifestations was reported” and the “size of affected areas” value is given as “the affected areas ceased to increase”. In data set [4] (0.1% aqueous solution three times a day for 6 days, nutrient media), the “growth from inoculations of swabs from the affected area after treatment” value is listed as “did not lead to growth on nutrient media”. Further, in data set [3] (setting [9]), the “growth from control inoculations on nutrient medium (Sabouraud)” value was “did not lead to a growth on the nutrient medium” and the “growth of test organisms on the boards” value was “No growth of the test organisms was registered”.
